Measured values: patent US11141406B2, “Pharmaceutical compounds” (REVIRAL LIMITED, priority 2017, dated 2021)

Tests used:
MDR1 = assay: in vitro; type: in vitro ADME; details: dog, MDCK-MDR1
Experimental: MDR1-MDCK Permeability: Experimental Procedure
MDR1-MDCK cells obtained from the NIH (Rockville, Md., USA) are used between passage numbers 6-30. Cells are seeded onto Millipore Multiscreen Transwell plates at 3.4×10^5 cells/cm^2. The cells are cultured in DMEM and media is changed on day 3. On day 4 the permeability study is performed. Cell culture and assay incubations are carried out at 37° C. in an atmosphere of 5% CO2 with a relative humidity of 95%. On the day of the assay, the monolayers are prepared by rinsing both basolateral and apical surfaces twice with Hanks Balanced Salt Solution (HBSS) at the desired pH warmed to 37° C. Cells are then incubated with HBSS at the desired pH in both apical and basolateral compartments for 40 min to stabilise physiological parameters.
The dosing solutions are prepared by diluting test compound with assay buffer to give a final test compound concentration of 10 μM (final DMSO concentration of 1% v/v). The fluorescent integrity marker lucifer yellow is also included in the dosing solution. Analytical standards are prepared from test compound DMSO dilutions and transferred to buffer, maintaining a 1% v DMSO concentration.
For assessment of A-B permeability, HBSS is removed from the apical compartment and replaced with test compound dosing solution. The apical compartment insert is then placed into a companion plate containing fresh buffer (containing 1% v/v DMSO). For assessment of B-A permeability, FIBSS is removed from the companion plate and replaced with test compound dosing solution. Fresh buffer (containing 1% v/v DMSO) is added to the apical compartment insert, which is then placed into the companion plate. At 60 min the apical compartment inserts and the companion plates are separated and apical and basolateral samples diluted for analysis. Test compound permeability is assessed in duplicate. Compounds of known permeability characteristics are run as controls on each assay plate.
Test and control compounds are quantified by LC-MS/MS cassette analysis using an 8-point calibration with appropriate dilution of the samples. The starting concentration (C0) is determined from the dosing solution and the experimental recovery calculated from C0 and both apical and basolateral compartment concentrations. The integrity of the monolayer throughout the experiment is checked by monitoring lucifer yellow permeation using fluorimetric analysis. Lucifer yellow permeation is high if monolayers have been damaged.

[1] = Liver microsomal stability, human; type: in vitro ADME; details: pooled liver microsomes, pH 7.4, 3 μM compound, 0.5 mg/mL protein, read-out: Liver Microsomal Stability t1/2
Experimental: (§1) Microsomal incubation: Experimental Procedure Pooled liver microsomes are purchased from a reputable commercial supplier and stored at −80° C. prior to use. Microsomes (final protein concentration 0.5 mg/mL), 0.1 M phosphate buffer pH 7.4 and test compound (final substrate concentration 3 μM, final DMSO concentration 0.25%) are pre-incubated at 37° C. prior to the addition of NADPH (final concentration 1 mM) to initiate the reaction. The final incubation volume is […]. A control incubation is included for each compound tested where 0.1 M phosphate buffer pH 7.4 is added instead of NADPH (minus NADPH). Two control compounds are included with each species. All incubations are performed singularly for each test compound. Each compound is incubated for 0, 5, 15, 30 and 45 min. The control (minus NADPH) is incubated for 45 min only. The reactions are stopped by transferring 20 μL of incubate to 60 μL MeOH at the appropriate time points. The termination plates are centrifuged at 2,500 rpm for 20 min at 4° C. to precipitate the protein. Following protein precipitation, the sample supernatants are combined in cassettes of up to 4 compounds, internal standard is added and samples analysed by LC-MS/MS. From a plot of In peak area ratio (compound peak area/internal standard peak area) against time, the gradient of the line is determined. Subsequently, half-life and intrinsic clearance are calculated.

[2] = Liver microsomal stability, rat; type: in vitro ADME; details: pooled liver microsomes, pH 7.4, 3 μM compound, 0.5 mg/mL protein, read-out: Liver Microsomal Stability t1/2
Experimental: as §1

[3] = Liver microsomal stability, dog; type: in vitro ADME; details: pooled liver microsomes, pH 7.4, 3 μM compound, 0.5 mg/mL protein, read-out: Liver Microsomal Stability t1/2
Experimental: as §1

[4] = system: RSV fusion (HEK293T cells transfected with pCDNA3.1_A2_F); assay: RSV fusion assay; type: cell-based; details: human respiratory syncytial virus, HEK-293T, read-out: RSV Fusion Assay (n ≥ 2) IC50
Experimental: HEK293T ((ECACC 12022001) cells were cultured in T75 culture flasks in Dulbecco's medium (DMEM) containing 10% Foetal Bovine serum (FBS), 50 units per mL Penicillin and 50 μg/mL Streptomycin and warmed to 37° C. prior to use. The cells were passaged by first washing briefly with 5 mL Phosphate buffered saline (PBS), followed by addition of 2 mL of Trypsin Ethylenediaminetetraacetic acid (EDTA) to detach the cells. Once cells had detached from the flask, 8 mL media was then added to and the cells dispersed via pipetting against the bottom of the flask.
The cells were counted and diluted to 3×10^5 cells/mL in fresh media. Two T75 flasks were each seeded with 15.6 mL diluted cells, cells were also subcultured at a ratio of between 1:2 and 1:10, to continue the stock. The flasks were then incubated for 24 h at 37° C. and 5% CO2.
The plasmid DNA (for pFR-Luc and pcDNA3.1_Gal4/NFKB) to be transfected into the HEK 293T cells was first prepared in serum free media (Opti-MEM, Invitrogen), containing the transfection reagent FuGENE® 6 (Promega). Serum free media was placed in a 1.5 mL eppendorf tube then the FuGENE 6 was added into the media. The tube was vortexed for 1 s before being incubated at RT for 5 min. 7.79 ng of both pFR_luc and pCDNA3.1_A2_F plasmid DNA were added to tube 1 and 7.79 ng of pCDNA3.1_GAL4-NF-κB plasmid to tube 2. The tubes were vortexed for 1 second and then incubated at room temperature for 15 min. Each transfection mixture was then added into the media of one of the T75 flasks of 293T cells. Cells were cultured for 24 h at 37° C., 5% CO2 in a humidified incubator.
Compounds were diluted (in a polypropylene round-bottomed 96 well plate) 1:3 in a twelve point dilution curve to give top [final] of either 25 μM, 3 μM, 1 μM or 500 nM. A control compound was included in every assay at a top concentration of 3 μM. Transfected cells were counted and diluted to 4×10^5 cells/mL in fresh media. 50 μL of transfection population 1 were added to all wells of the 96 well flat bottom white opaque assay plates. 100 μL diluted compound (2 rows per compound), control compound (one row) and controls (DMSO (0% inhibition, four wells), 3 μM positive control (100% inhibition, four wells) and media (transfection population 1 only, four wells) were added to the appropriate wells. 50 μL of the diluted (4×10^5 cells/mL) population 2 cells when then added to all wells, except the four wells of transfection population 1 only where an extra 50 μL of this cells population was added.
The plates were then incubated for 24 h at 37° C. and 5% CO2. After this time, 100 μL was removed from all wells and 60 μL of ONE-Glo™ (Promega) reagent, pre-equilibrated to room temperature, was added. Plates were then incubated for 3 min at room temperature before luminescence was read, using the ONE-Glo protocol, on the GloMax Explorer System (Promega) multimode reader. Analysis was carried out in Dotmatics software. All raw data were background subtracted (subtraction of mean 3 μM positive control value), before IC50 calculation.

Structure (SMILES)	Papp A→B at 60 min, 10 μM (MDR1) [×10⁻⁶ cm/s]	Papp B→A at 60 min, 10 μM (MDR1) [×10⁻⁶ cm/s]	half-life at 3 μM [1] [h]	half-life at 3 μM [2] [h]	half-life at 3 μM [3] [h]	IC50 [4] [nM]
CS(=O)(=O)CCCn1c(CN2C(=O)C(F)(F)c3ccccc32)nc2cc(Cl)ccc21 [Compound 5, 1-{[5-Chloro-1-(3-methanesulfonylpropyl)-1H-1,3-benzodiazol-2-yl]methyl}-3,3-difluoro-2,3-dihydro-1H-indol-2-one]	0.21	14.5	54.7	0.355	1.05	3.9
CCS(=O)(=O)N1CCC(n2c(CN3C(=O)C(F)(F)c4ccccc43)nc3cc(Cl)ccc32)CC1 [Compound 9, 1-({5-Chloro-1-[1-(ethanesulfonyl)piperidin-4-yl]-1H-1,3-benzodiazol-2-yl}methyl)-3,3-difluoro-2,3-dihydro-1H-indol-2-one]	10.4	18.3	1.5	0.377	1.97	2.2
O=C1N(Cc2nc3cc(Cl)ccc3n2C2CCOCC2)c2ccccc2C1(F)F [Compound 10, 1-{[5-Chloro-1-(oxan-4-yl)-1H-1,3-benzodiazol-2-yl]methyl}-3,3-difluoro-2,3-dihydro-1H-indol-2-one]	19.8	34.4	1.12	0.303	0.207	17
CC(C)CCn1c(CN2C(=O)C(F)(F)c3ccccc32)nc2cc(CN)ccc21 [Compound 13, 1-{[5-(Aminomethyl)-1-(3-methylbutyl)-1H-1,3-benzodiazol-2-yl]methyl}-3,3-difluoro-2,3-dihydro-1H-indol-2-one]	0.84	57.1	6.1	0.282	154	2.6
